{
  "source": "patent US9285319B2",
  "about": "“Nucleic acid base analogs with quenching and fluorescent activities and applications thereof” (RIKEN, priority 2010, dated 2016)",
  "key": {"[1]": {"target": "T1, Klenow fragment not having exonuclease activity (KF exo−) (Escherichia coli, UniProt P00582, D355A/E357A)", "T1 construct": "a Klenow fragment not having exonuclease activity; purchased Amersham USB", "T1 sequence (P00582 324-928 D355A/E357A)": "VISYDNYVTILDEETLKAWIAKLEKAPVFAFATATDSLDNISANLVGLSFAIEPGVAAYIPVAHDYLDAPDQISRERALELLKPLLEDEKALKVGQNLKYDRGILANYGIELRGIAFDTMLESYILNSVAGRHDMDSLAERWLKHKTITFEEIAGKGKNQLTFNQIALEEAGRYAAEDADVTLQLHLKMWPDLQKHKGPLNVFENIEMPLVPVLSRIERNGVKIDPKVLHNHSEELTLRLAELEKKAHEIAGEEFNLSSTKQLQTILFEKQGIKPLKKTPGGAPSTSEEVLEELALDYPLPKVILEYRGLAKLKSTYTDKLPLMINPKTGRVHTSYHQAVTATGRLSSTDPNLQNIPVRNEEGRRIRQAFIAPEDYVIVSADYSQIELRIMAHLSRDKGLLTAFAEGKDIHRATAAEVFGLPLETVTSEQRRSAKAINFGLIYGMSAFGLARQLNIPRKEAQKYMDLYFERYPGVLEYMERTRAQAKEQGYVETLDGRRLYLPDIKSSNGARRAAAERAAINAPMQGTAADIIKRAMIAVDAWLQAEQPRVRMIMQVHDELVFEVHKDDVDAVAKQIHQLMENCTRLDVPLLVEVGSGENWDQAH", "type": "biochemical", "conditions": "for Km / Vmax: 37° C., SD in parentheses", "experimental": "An experiment of single-base incorporation by a Klenow fragment was performed with reference to documents (Kimoto, M., Yokoyama, S., Hirao, I., Biotechnol. Lett., 2004, 26, 999-1005; Petruska, J., Goodman, M. F., Boosalis, M. S., Sowers, L. C., Cheong, C., Tinoco, I., Proc. Natl. Acad. Sci. USA, 1988, 85, 6252-6256; Goodman, M. F., Creighton, S., Bloom, L. B., Petruska, J., Crit. Rev. Biochem. Mol. Biol., 1993, 28, 83-126; Morales, J. C., Kool, E. T., Nat. Struct. Biol., 1998, 5, 950-954).\nSpecifically, a primer (20-mer, 5′-[…]-3′ (SEQ ID NO: 4) or 5′-[…]-3′ (SEQ ID NO: 5)) labeled with 6-carboxyfluorescein at the 5′ end and a template DNA (35-mer, 5′-AGCTCTDss[…]-3′ (SEQ ID NO: 6) or 5′-[…]-3′ (N=Pn, A, G, C, or T) (SEQ ID NO: 7)) were heated in a 100 mM Tris-HCl buffer (pH 7.5) containing 20 mM MgCl2, 2 mM DTT, and 100 μg/mL bovine serum albumin (BSA) at 95° C. and were then gradually cooled to 4° C. for annealing to form a double strand of the template and the primer.\nAn enzyme solution (2 μL) of a Klenow fragment not having exonuclease activity (KF exo−, Amersham USB) was added to 5 μL of each primer-template double-stranded DNA solution (10 μM). The mixture was incubated at 37° C. for 2 minutes to form a DNA/enzyme complex. To this solution, 3 μL of each substrate solution, i.e., nucleoside triphosphate solution (Dss, Pn, or one of A, G, C, and T, 1 μM to 5 mM) was added, followed by an enzyme reaction at 37° C. (for 1 to 35 minutes). The reaction was terminated by adding 10 μL of a 20 mM EDTA solution in 95% formamide (stop solution) to the reaction solution and heating the solution at 75° C. for 3 minutes.\nThe reaction conditions are summarized as follows. For each solution (10 μL), 5 μM primer-template double strand, 5 to 50 nM enzyme, and 0.3 to 1500 μM substrate are used. The solution (10 μL) contains 50 mM Tris-HCl (pH 7.5), 10 mM MgCl2, 1 mM DTT, and 0.05 mg/mL BSA. The reaction is performed at 37° C. for 1 to 35 minutes.\nA part of the reaction solution was diluted with the stop solution, and 0.5 μL of the diluted reaction solution was mixed with 3 μL of a loading solution (deionized formamide: 50 mg/mL blue dextran solution containing 25 mM EDTA=5:1). The solution mixture was heated at 90° C. for 2 minutes and then was rapidly cooled on ice. About 0.5 μL of the solution was loaded on every other lane of a sequencing gel for electrophoresis. The sequencing gel (36 cm WTR) was composed of 6 M urea, 10% polyacrylamide (acrylamide:bisacrylamide=19:1), and 0.5×TBE. The buffer used for the electrophoresis was 0.5×TBE. The Run Module was GS Run 36C-2400. The time for electrophoresis was about 1 hour, and the peak patterns of the reaction products were analyzed and quantitatively measured by an automated ABI377 DNA sequencer equipped with GeneScan software (version 3.0).\nThe proportion of the primer extended by one nucleotide was determined from the peak area of the unreacted primer fragment and the peak area of the DNA fragment extended by single-base incorporation, and enzymatic parameters Vmax and KM were calculated by Hanes-Woolf plot (Goodman, M. F., Creighton, S., Bloom, L. B., Petruska, J., Crit. Rev. Biochem. Mol. Biol., 1993, 28, 83-126). The Vmax value was standardized to 20 nM enzyme concentration and 5 μM double strand concentration for various enzyme and double-strand concentrations used."}, "[2]": {"experiment": "Fluorescence intensity of fluorescent molecule (Cy3) linked to Px base having a quenching activity", "type": "physicochemical", "conditions": "free substrate"}, "[3]": {"conditions": "template N = Dss, primer 5′-[…]"}, "[4]": {"conditions": "template N = T, primer 5′-ACTCACTATAGGGAGCTTCT"}, "[5]": {"conditions": "template N = A, primer 5′-ACTCACTATAGGGAGGAAGA"}},
  "note": "Where two headings read alike, the source gives them in different places.",
  "data": [
    {"compound": "O=[N+]([O-])c1cccn1[C@H]1C[C@H](O)[C@@H](COP(=O)(O)OP(=O)(O)OP(=O)(O)O)O1", "note": "[dPnTP]", "values": [
      {"measurement": "Efficiency (Vmax/KM)", "setting": "[1]; [3]", "result": "1.1 × 10^5 % min^−1 M^−1"},
      {"measurement": "Km", "setting": "[1]; [3]", "result": 100, "unit": "µM"},
      {"measurement": "Vmax", "setting": "[1]; [3]", "result": "11 (3) % min^−1"}
    ]},
    {"compound": "1-(2-deoxy-β-D-ribofuranosyl-4-[3-(Cy3-carboxamide hexanamide)-1-propynyl]-2-nitropyrrole 5′-triphosphate [Cy3-hx-dPxTP]", "values": [
      {"measurement": "fluorescence intensity of fluorescent molecule quenched when linked to Px base", "setting": "[2]", "result": "about 30%"}
    ]},
    {"compound": "Nc1ncnc2c1ncn2[C@H]1C[C@H](O)[C@@H](COP(=O)(O)OP(=O)(O)OP(=O)(O)O)O1", "note": "[dATP, deoxyriboadenosine triphosphate]", "values": [
      {"measurement": "Efficiency (Vmax/KM)", "setting": "[1]; [4]", "result": "4.0 × 10^6 % min^−1 M^−1"},
      {"measurement": "Km", "setting": "[1]; [4]", "result": 0.81, "unit": "µM"},
      {"measurement": "Vmax", "setting": "[1]; [4]", "result": "3.3 (1.8) % min^−1"}
    ]},
    {"compound": "deoxyribothymidine triphosphate [dTTP]", "values": [
      {"measurement": "Efficiency (Vmax/KM)", "setting": "[1]; [5]", "result": "4.0 × 10^6 % min^−1 M^−1"},
      {"measurement": "Km", "setting": "[1]; [5]", "result": 0.7, "unit": "µM"},
      {"measurement": "Vmax", "setting": "[1]; [5]", "result": "2.8 (1.5) % min^−1"}
    ]}
  ]
}
